According to ChEMBL document CHEMBL5365414, “Synthesis and activity of β-carboline antimalarials targeting the Plasmodium falciparum heat shock 90 protein” (Bioorg Med Chem Lett, 2023):

Key:
Plasmodium berghei [1] = assay: Antimalarial activity against luciferase expressing liver stage Plasmodium berghei ANKA infected in human Huh-7 cells assessed as reduction in parasite load at 10 uM measured after 44 hrs post infection by Bright-glo reagent based luciferase reporter assay relative to control; type: functional; parameters: scale not given: the % may be the effect or the level left
Huh-7 [2] = assay: Cytotoxicity against human Huh-7 cells infected with luciferase expressing liver stage Plasmodium berghei ANKA assessed as reduction in cell viability at 10 uM measured after 44 hrs post infection by Cell-TiterFluor viability assay relative to control; type: toxicity, cell-based; details: huh-7, 44 h
HSP90 = molecular target: T1, HSP90 (Plasmodium falciparum 3D7, UniProt Q8IL32); assay: Inhibition of recombinant his-tagged Plasmodium falciparum Hsp90 GHKL domain expressed in Escherichia coli BL21 (DE3) cells by bis-ANS binding assay
T1 sequence (Q8IL32 whole entry): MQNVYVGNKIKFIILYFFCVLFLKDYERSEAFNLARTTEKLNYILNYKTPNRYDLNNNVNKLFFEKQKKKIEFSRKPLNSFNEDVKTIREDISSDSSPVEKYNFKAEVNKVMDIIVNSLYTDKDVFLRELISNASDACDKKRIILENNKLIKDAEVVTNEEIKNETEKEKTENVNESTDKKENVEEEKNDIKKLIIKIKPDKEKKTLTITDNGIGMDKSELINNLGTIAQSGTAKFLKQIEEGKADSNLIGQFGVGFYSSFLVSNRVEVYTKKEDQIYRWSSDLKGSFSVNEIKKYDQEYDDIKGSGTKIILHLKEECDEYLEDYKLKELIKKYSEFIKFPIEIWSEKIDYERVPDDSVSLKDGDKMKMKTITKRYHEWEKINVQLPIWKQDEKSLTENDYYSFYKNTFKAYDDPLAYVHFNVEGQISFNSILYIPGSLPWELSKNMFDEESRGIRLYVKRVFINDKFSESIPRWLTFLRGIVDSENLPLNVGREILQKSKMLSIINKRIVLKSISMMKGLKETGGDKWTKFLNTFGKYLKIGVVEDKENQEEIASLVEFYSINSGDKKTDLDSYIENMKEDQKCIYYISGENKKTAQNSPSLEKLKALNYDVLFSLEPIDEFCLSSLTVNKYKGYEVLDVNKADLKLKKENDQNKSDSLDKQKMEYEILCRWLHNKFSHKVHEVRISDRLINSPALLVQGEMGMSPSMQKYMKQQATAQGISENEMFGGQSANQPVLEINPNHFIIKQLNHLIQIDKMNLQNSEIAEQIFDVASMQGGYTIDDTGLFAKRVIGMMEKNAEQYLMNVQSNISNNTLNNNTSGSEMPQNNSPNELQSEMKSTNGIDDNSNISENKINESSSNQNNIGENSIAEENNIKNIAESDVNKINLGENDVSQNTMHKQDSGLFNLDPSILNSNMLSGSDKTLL

Huh-7 [3] = assay: Cytotoxicity against human Huh-7 cells infected with luciferase expressing liver stage Plasmodium berghei ANKA assessed as reduction in cell viability upto 100 uM measured after 44 hrs post infection by Cell-TiterFluor viability assay; type: toxicity, cell-based; details: huh-7, 44 h
Plasmodium berghei [4] = assay: Antimalarial activity against luciferase expressing liver stage Plasmodium berghei ANKA infected in human Huh-7 cells assessed as reduction in parasite load measured after 44 hrs post infection by Bright-glo reagent based luciferase reporter assay; type: functional, organism-based; details: Huh-7, 44 h
Huh-7 [5] = assay: Cytotoxicity against human Huh-7 cells infected with luciferase expressing liver stage Plasmodium berghei ANKA assessed as reduction in cell viability at high doses measured after 44 hrs post infection by Cell-TiterFluor viability assay; type: toxicity, cell-based; details: huh-7, 44 h

COc1ccc2[nH]c3c(-c4ccccc4)nccc3c2c1
Activity (Plasmodium berghei [1]): >50%

c1ccc2c(c1)[nH]c1c(-c3ccsc3)nccc12
Activity (Plasmodium berghei [1]): >50%
Activity (Huh-7 [2]): 78%

CC1NCCc2c1[nH]c1ccc(Cl)cc21 (stereo not drawn)
IC50 (HSP90): 12.2 µM

Clc1cccc(-c2nccc3c2[nH]c2ccccc23)c1
Activity (Plasmodium berghei [1]): >50%

c1cncc(-c2nccc3c2[nH]c2ccccc23)c1
Activity (Plasmodium berghei [1]): >50%

N#Cc1ccc(-c2nccc3c2[nH]c2ccccc23)cc1
Activity (Plasmodium berghei [1]): >50%

FC(F)(F)c1ccc(-c2nccc3c2[nH]c2ccccc23)cc1
Activity (Huh-7 [3]): Non-Toxic
EC50 (Plasmodium berghei [4]): 5.2 µM
Activity (Plasmodium berghei [1]): 5.8%

c1ccc2c(c1)[nH]c1c(C3CC3)nccc12
Activity (Plasmodium berghei [1]): >50%

Clc1cccc(-c2nccc3c2[nH]c2ccc(Cl)cc23)c1
Activity (Plasmodium berghei [1]): >50%

COc1ccc(-c2nccc3c2[nH]c2ccccc23)cc1
Activity (Plasmodium berghei [1]): >50%

COc1ccc2c(c1)[nH]c1c(C3CC3)nccc12
Activity (Plasmodium berghei [1]): >50%

Clc1ccc2[nH]c3c(-c4ccccc4)nccc3c2c1
Activity (Plasmodium berghei [1]): >50%

FC(F)(F)c1cccc(-c2nccc3c2[nH]c2ccc(Cl)cc23)c1
EC50 (Plasmodium berghei [4]): 5.2 µM
Activity (Huh-7 [5]): Toxic
Activity (Plasmodium berghei [1]): 15%

Cc1cccc(-c2nccc3c2[nH]c2ccc(Cl)cc23)c1
Activity (Plasmodium berghei [1]): 41%

COc1cccc(-c2nccc3c2[nH]c2ccc(Cl)cc23)c1
Activity (Plasmodium berghei [1]): >50%
Activity (Huh-7 [2]): 78%

O=C1C(O)=C([C@H]2CC[C@H](c3ccc(Cl)cc3)CC2)C(=O)c2ccccc21 [ATOVAQUONE]
EC50 (Plasmodium berghei [4]): 0.01 µM

c1ccc2c(c1)[nH]c1cnccc12 [NORHARMANE]
Activity (Plasmodium berghei [1]): >50%
